Source: BindingDB's records for doi:10.1021/acs.biochem.5b00106 (Louis Stokes Cleveland Veterans Affairs Medical Center, 2015)

Experiments:
[1] = biological target: Metallo-beta-lactamase VIM-2 (Klebsiella pneumoniae, UniProt Q3Y6Q3); assay: Direct Competition Assay
Experimental: (§1) The Ki for each inhibitor was determined by direct competition assays under steady-state conditions. The initial velocity was measured in the presence of a constant concentration of enzyme (3 nM for VIM-2 and 4 nM for VIM-24) with increasing concentrations of inhibitor (5−60 μM) against a fixed concentration (5KM) of the indicator substrate, NCF, as previously described. The reactionswere started by addition of VIM-2 or VIM-24 to substrate or to mixtures of substrate and inhibitor.

VIM-24 = VIM-24 (Klebsiella pneumoniae, UniProt E0AFT6); assay: Direct Competition Assay
Experimental: as §1

Structure (SMILES): O=C(O)[C@H]1CS[C@@H]2CS[C@@H](CS)N12 [D-CS319]
- Ki [1]: 5.4 µM
- Ki (VIM-24): 11 µM

Structure (SMILES): CC1(C)S[C@@H]2CS[C@@H](CS)N2[C@H]1C(=O)O [D-VC26]
- Ki [1]: 14 µM
- Ki (VIM-24): 12 µM

Structure (SMILES): O=C(O)[C@@H]1CS[C@H]2CS[C@H](CS)N21 [L-CS319]
- Ki [1]: 3.7 µM
- Ki (VIM-24): 6 µM

Structure (SMILES): CC1(C)S[C@H]2CS[C@H](CS)N2[C@@H]1C(=O)O [L-VC26]
- Ki [1]: 3.8 µM
- Ki (VIM-24): 4.9 µM
